# Experimental data taken from patent publication US10676446B2, “Bicyclic quinazolinone derivatives” (Hoffmann-La Roche Inc., priority 2015, dated 2020).
# Target: human ATX (autotaxin, ENPP2), His-tagged (Homo sapiens (Human), UniProt Q13822)
# Experiment: Human ATX enzyme inhibition assay (fluorescence quenching, MR121 substrate)
# Type: biochemical
# Details: 30 nM ATX, 1 μM MR121 substrate, 30° C., pH 8.0
# Experimental: Human ATX Enzyme Inhibition Assay
# ATX inhibition was measured by a fluorescence quenching assay using a specifically labeled substrate analogue (MR121 substrate). To obtain this MR121 substrate, BOC and TBS protected 6-amino-hexanoic acid (R)-3-({2-[3-(2-{2-[2-(2-amino-ethoxy)-ethoxy]-ethoxy}-ethoxy)-propionylamino]-ethoxy}-hydroxy-phosphoryloxy)-2-hydroxy-propyl ester (Ferguson et al., Org. Lett. 2006, 8, 2023) was labeled with MR121 fluorophore [CAS RN 185308-24-1], 1-(3-carboxypropyl)-11-ethyl-1,2,3,4,8,9,10,11-octahydro-dipyrido[3,2-b:2′,3′-i]phenoxazin-13-ium) on the free amine of the ethanolamine side and then, after deprotection, subsequently with tryptophan on the side of the aminohexanoic acid.
# Assay working solutions were made as follows:
# Assay buffer (50 mM Tris-HCl, 140 mM NaCl, 5 mM KCl, 1 mM CaCl2, 1 mM MgCl2, 0.01% Triton-X-100, pH 8.0;
# ATX solution: ATX (human His-tagged) stock solution (1.08 mg/mL in 20 mM bicine, pH 8.5, 0.15 M NaCl, 10% glycerol, 0.3% CHAPS, 0.02% NaN3), diluted to 1.4-2.5× final concentration in assay buffer;
# MR121 substrate solution: MR121 substrate stock solution (800 μM MR121 substrate in DMSO), diluted to 2-5× final concentration in assay buffer.
# Test compounds (10 mM stock in DMSO, 8 μL) were obtained in 384 well sample plates (Corning Costar #3655) and diluted with 8 μL DMSO. Row-wise serial dilutions were made by transferring 8 μL cpd solution to the next row up to row O. The compound and control solutions were mixed five times and 2 μL were transferred to 384 well assay plates (Corning Costar #3702). Then, 15 μL of 41.7 nM ATX solution was added (30 nM final concentration), mixed five times and then incubated for 15 minutes at 30° C. 10 μL of MR121 substrate solution was added (1 μM final concentration), mixed 30 times and then incubated for 15 minutes at 30° C.
row,Compound,IC50 [nM]
1,CC(=O)N1CCN(c2ccc3ncn(CC(=O)NC(CC(=O)Nc4ccccc4)c4ccc(Cl)cc4)c(=O)c3c2)CC1 (stereo not shown) [Example 3],198
2,"CC(=O)N1CCN(c2ccc3ncn(CC(=O)NCc4ccc(Cl)cc4)c(=O)c3c2)CC1 [Example 10, 2-[6-(4-Acetylpiperazin-1-yl)-4-oxoquinazolin-3-yl]-N-[(4-chlorophenyl)methyl]acetamide]",96
3,CC(=O)N1CCN(c2ccc3ncn(CC(=O)NCc4ccnc(Cl)c4)c(=O)c3c2)CC1 [Example 36],346
4,COCC(=O)N1CCC(c2ccc3ncn(CC(=O)N(C)Cc4ccc(C#N)c(Cl)c4)c(=O)c3c2)CC1 [Example 132],12
5,"CN(Cc1ccc(C#N)c(Cl)c1)C(=O)Cn1cnc2ccc(N3CCN(CC4CCOC4)CC3)cc2c1=O (stereo not shown) [Example 114, N-[(3-Chloro-4-cyanophenyl)methyl]-N-methyl-2-[4-oxo-6-[4-(oxolan-3-ylmethyl)piperazin-1-yl]quinazolin-3-yl]acetamide]",26
6,COc1cc(C#N)ccc1CNC(=O)Cn1cnc2ccc(N3CCN(C(C)=O)CC3)cc2c1=O [Example 32],89
7,CC(=O)N1CCN(c2ccc3ncn(CC(=O)NC(CC(=O)NCC(C)C)c4ccc(C(F)(F)F)cc4)c(=O)c3c2)CC1 (stereo not shown) [Example 6],979
8,CN(Cc1ccc(Cl)c(Cl)c1)C(=O)Cn1cnc2ccc(C3CCN(C(=O)C4(O)CCC4)CC3)cc2c1=O [Example 176],46
9,"CN(Cc1ccc(C#N)c(Cl)c1)C(=O)Cn1cnc2ccc(C3CCN(C(=O)CO[N+](=O)[O-])CC3)cc2c1=O [Example 186, [2-[4-[3-[2-[(3-Chloro-4-cyanophenyl)methyl-methylamino]-2-oxoethyl]-4-oxoquinazolin-6-yl]piperidin-1-yl]-2-oxoethyl]nitrate]",4
10,"CC(C)NC(=O)N1CCN(c2ccc3ncn(CC(=O)NCc4ccc(Cl)c(Cl)c4)c(=O)c3c2)CC1 [Example 82, 4-[3-[2-[(3,4-Dichlorophenyl)methylamino]-2-oxoethyl]-4-oxoquinazolin-6-yl]-N-propan-2-ylpiperazine-1-carboxamide]",43
11,CC(C)[C@H](O)C(=O)N1CCC(c2ccc3ncn(CC(=O)N(C)Cc4ccc(Cl)c(Cl)c4)c(=O)c3c2)CC1 [Example 170],14
12,CN(Cc1ccc(Cl)c(Cl)c1)C(=O)Cn1cnc2ccc(N3CCN(S(=O)(=O)C4CC4)CC3)cc2c1=O [Example 91],30
13,"CS(=O)(=O)N1CCN(c2ccc3ncn(CC(=O)NCc4ccc(Cl)c(Cl)c4)c(=O)c3c2)CC1 [Example 88, N-[(3,4-Dichlorophenyl)methyl]-2-[6-(4-methylsulfonylpiperazin-1-yl)-4-oxoquinazolin-3-yl]acetamide]",88
14,O=C(Cn1cnc2ccc(N3CCN(C(=O)NC4CC4)CC3)cc2c1=O)NCc1ccc(Cl)c(Cl)c1 [Example 83],30
15,CC(=O)N1CCN(c2ccc3ncn(CC(=O)NC(CC(=O)NCc4ccccc4)c4ccc(C(F)(F)F)cc4)c(=O)c3c2)CC1 (stereo not shown) [Example 8],279
16,"CC(=O)N1CCC(c2cc(F)c3ncn(CC(=O)N(C)Cc4ccc(C#N)c(Cl)c4)c(=O)c3c2)CC1 [Example 187, 2-[6-(1-Acetylpiperidin-4-yl)-8-fluoro-4-oxoquinazolin-3-yl]-N-[(3-chloro-4-cyanophenyl)methyl]-N-methylacetamide]",1
17,CN(Cc1ccc(Cl)c(Cl)c1)C(=O)Cn1cnc2ccc(N3CCN(C(=O)C4CC(Cl)C4)CC3)cc2c1=O (stereo not shown) [Example 77],3
18,O=C(Cn1cnc2ccc(N3CCN(CC4CCOCC4)CC3)cc2c1=O)NCc1ccc(Cl)c(Cl)c1 [Example 98],44
19,Cc1noc(C)c1NC(=O)N1CCN(c2ccc3ncn(CC(=O)NCc4ccc(Cl)c(Cl)c4)c(=O)c3c2)CC1 [Example 86],133
20,"CC(=O)N1CCC(O)(c2ccc3ncn(CC(=O)N(C)Cc4ccc(Cl)c(Cl)c4)c(=O)c3c2)CC1 [Example 184, 2-[6-(1-Acetyl-4-hydroxypiperidin-4-yl)-4-oxoquinazolin-3-yl]-N-[(3,4-dichlorophenyl)methyl]-N-methylacetamide]",86
21,CO[C@H](C)C(=O)N1CCC(c2ccc3ncn(CC(=O)N(C)Cc4ccc(Cl)c(Cl)c4)c(=O)c3c2)CC1 [Example 167],4
22,"CCN(Cc1ccc(Cl)c(Cl)c1)C(=O)Cn1cnc2ccc(N3CCN(C(C)=O)CC3)cc2c1=O [Example 116, 2-[6-(4-Acetylpiperazin-1-yl)-4-oxoquinazolin-3-yl]-N-[(3,4-dichlorophenyl)methyl]-N-ethylacetamide]",16
23,"CC(=O)N1CCN(c2ccc3ncn(CC(=O)N(C)Cc4ccc(C#N)c(Cl)c4)c(=O)c3c2)CC1 [Example 56, 2-[6-(4-Acetylpiperazin-1-yl)-4-oxoquinazolin-3-yl]-N-[(3-chloro-4-cyanophenyl)methyl]-N-methylacetamide]",8

row,Compound,IC50 [nM]
1,CC(=O)N1CCCN(c2ccc3ncn(CC(=O)N(C)Cc4ccc(C#N)c(Cl)c4)c(=O)c3c2)CC1 [Example 120],9
2,CC(C)[C@@H](O)C(=O)N1CCC(c2ccc3ncn(CC(=O)N(C)Cc4ccc(C#N)c(Cl)c4)c(=O)c3c2)CC1 [Example 157],10
3,"CN(Cc1ccc(C#N)c(Cl)c1)C(=O)Cn1cnc2ccc(C3CCN(CC4CCOC4)CC3)cc2c1=O (stereo not shown) [Example 143, N-[(3-Chloro-4-cyanophenyl)methyl]-N-methyl-2-[4-oxo-6-[1-(oxolan-3-ylmethyl)piperidin-4-yl]quinazolin-3-yl]acetamide]",46
4,CC(=O)N1CCN(c2ccc3ncn(CC(=O)NCc4ccc(Cl)c(F)c4)c(=O)c3c2)CC1 [Example 24],33
5,CC(=O)N1CCN(c2ccc3ncn(CC(=O)NCc4ccc(C#N)cc4Cl)c(=O)c3c2)CC1 [Example 29],175
6,CN(Cc1ccc(Cl)c(Cl)c1)C(=O)Cn1cnc2ccc(N3CCN(CC(=O)N4CCOCC4)CC3)cc2c1=O [Example 111],35
7,"CC(=O)N1CCN(c2ccc3ncn(CC(=O)NCc4ccc(C#N)c(F)c4)c(=O)c3c2)CC1 [Example 28, 2-[6-(4-Acetylpiperazin-1-yl)-4-oxoquinazolin-3-yl]-N-[(4-cyano-3-fluorophenyl)methyl]acetamide]",27
8,CC(=O)N1CCN(c2ccc3ncn(CC(=O)NC(CC(=O)Nc4ccccc4)c4ccc(C(F)(F)F)cc4)c(=O)c3c2)CC1 (stereo not shown) [Example 7],84
9,CC(=O)N1CCC(c2ccc3ncn(CC(=O)N(C)Cc4ccc(Cl)c(C#N)c4)c(=O)c3c2)CC1 [Example 126],12
10,CC(=O)N1CCN(c2ccc3ncn(CC(=O)NCc4ccc(Cl)cc4Cl)c(=O)c3c2)CC1 [Example 23],72
11,CC(=O)N1CCN(c2ccc3ncn(CC(=O)NCc4ccc(Cl)cn4)c(=O)c3c2)CC1 [Example 12],148
12,CC(=O)N1CC(C(=O)N2CCN(c3ccc4ncn(CC(=O)N(C)Cc5ccc(Cl)c(Cl)c5)c(=O)c4c3)CC2)C1 [Example 81],73
13,"CN(Cc1ccc(Cl)c(C#N)c1)C(=O)Cn1cnc2ccc(N3CCN(CC4CCOC4)CC3)cc2c1=O (stereo not shown) [Example 115, N-[(4-Chloro-3-cyanophenyl)methyl]-N-methyl-2-[4-oxo-6-[4-(oxolan-3-ylmethyl)piperazin-1-yl]quinazolin-3-yl]acetamide]",29
14,CC(=O)N1CCN(c2ccc3ncn(CC(=O)NCc4ccc(Cl)c(Cl)c4)c(=O)c3c2)CC1 [Example 22],91
15,CC(=O)N1CCN(c2ccc3ncn(CC(=O)N[C@H](CC(N)=O)c4ccc(Cl)cc4)c(=O)c3c2)CC1 [Example 27],340
16,"CN(Cc1ccc(C#N)c(Cl)c1)C(=O)Cn1cnc2ccc(C3CCN(C(=O)CCC#N)CC3)cc2c1=O [Example 155, N-[(3-Chloro-4-cyanophenyl)methyl]-2-[6-[1-(3-cyanopropanoyl)piperidin-4-yl]-4-oxoquinazolin-3-yl]-N-methylacetamide]",153
17,CC(=O)N1CCN(c2ccc3ncn(CC(=O)NCc4ccc(C)c(Cl)c4)c(=O)c3c2)CC1 [Example 42],140
18,O=C(Cn1cnc2ccc(N3CCN(C(=O)NC4CCCC4)CC3)cc2c1=O)NCc1ccc(Cl)c(Cl)c1 [Example 84],2
19,CC(=O)N1CCN(c2ccc3ncn(CC(=O)NCc4c(F)cc(C#N)cc4F)c(=O)c3c2)CC1 [Example 31],331
20,CN(Cc1ccc(Cl)c(Cl)c1)C(=O)Cn1cnc2ccc(C3CCN(C(=O)C4(C)CCCO4)CC3)cc2c1=O (stereo not shown) [Example 181],8
21,COCCNC(=O)N1CCN(c2ccc3ncn(CC(=O)NCc4ccc(Cl)c(Cl)c4)c(=O)c3c2)CC1 [Example 85],61
22,CC(=O)N1CCC(c2ccc3ncn(CC(=O)NCc4ccc(C(F)(F)F)cc4)c(=O)c3c2)CC1 [Example 123],67
23,Cn1cccc1CN1CCN(c2ccc3ncn(CC(=O)NCc4ccc(Cl)c(Cl)c4)c(=O)c3c2)CC1 [Example 99],31
